The values that follow are results of earlier work, collected in patent US20080075681A1, “Method and composition for permanently shaping hair” (priority 2006, published 2008).

Each structure is given as a SMILES string.

The conditions of the series: compared to N-methylmercaptoacetamide and N-hydroxyethylmercaptoacetamide; EP 0969791 B1.

Consider `O=C(CS)NCCCO` [N-(3′-hydroxypropyl)-2-mercapto-acetamide], for which the sensitization rates entry was “substantially lower”.
